# Laboratory results reported in patent publication US20130225830A1, “POLYMORPHS OF FEBUXOSTAT” (MAPI PHARMA LIMITED, priority 2010, published 2013).
# Where two headings read alike, the source gives them in different places.
# Experiments:
# Type in all cases: physicochemical
# [1] = Hygroscopicity measurements (DVS sorption/desorption profiles); conditions: 25° C.
# Method: The sorption/desorption profiles of the forms of the present invention were tested at 25° C. under 0-90% relative humidity. The forms of the present invention were classified according to the following criteria: Deliquescent: Sufficient water is absorbed to form a liquid. […] Hygroscopic: Increase in mass is less than 15% and equal to or greater than 2%. Slightly hygroscopic: Increase in mass is less than 2% and equal to or greater than 0.2%. Non-hygroscopic: Increase in mass is less than 0.2%.
# [2] = Bulk and tapped density measurements
# Method: Bulk density testing: A febuxostat form in an amount which is sufficient to complete the test was passed through a 1.0 mm (No. 18) screen to break up agglomerates that may have formed during storage. The febuxostat form was then weighed (M) and the powder was added into a 10 mL graduated cylinder. The powder was carefully leveled without compacting, and the unsettled apparent volume, Vo, was read. The bulk density, in g per mL, was calculated by the formula: Bulk Density=M/Vo Tapped density testing: A febuxostat form in an amount which is sufficient to complete the test was passed through a 1.0 mm (No. 18) screen to break up agglomerates that may have formed during storage. The febuxostat form was then weighed and the powder was added into a 10 mL graduated cylinder. The powder was carefully leveled without compacting. The cylinder was tapped 500 times initially and the tapped volume, Va, was measured to the nearest graduated unit. The tapping was then repeated for additional 750 times and the tapped volume, Vb, was measured to the nearest graduated unit. If the difference between the two volumes was less than 2%, Vb was taken as the final tapped volume, Vf. The tapped density, in g per mL, was calculated by the formula: Tapped Density=M/Vf
# [3] = Aqueous solubility measurements; conditions: for solubility at 24 h: 25 °C, thermodynamic from solid, read-out: HPLC solubility; for pH: final pH of saturated solution
# Method: Testing media: water, pH 1.2, 4.5, 6.8, 7.4 USP buffers, 0.01 N HCl, 0.1 N HCl, SGF, FaSSIF, FeSSIF.
# The various testing media were prepared as follows:
# pH 1.2 (USP): 50 mL of 0.2 M potassium chloride solution were placed in a 200 mL volumetric flask to which 85.0 mL of 0.2M hydrochloric acid solution were added followed by the addition of water to obtain the required volume.
# pH 4.5 (USP): 50 mL of 0.2 M potassium biphthalate solution were placed in a 200 mL volumetric flask to which 8.8 mL of 0.2 M sodium hydroxide solution were added followed by the addition of water to obtain the required volume.
# pH 6.8 (USP): 50 mL of 0.2 M monobasic potassium phosphate solution were placed in a 200 mL volumetric flask to which 22.4 mL of 0.2 M sodium hydroxide solution were added followed by the addition of water to obtain the required volume.
# pH 7.4 (USP): 50 mL of 0.2 M monobasic potassium phosphate solution were placed in a 200 mL volumetric flask to which 39.1 mL of 0.2 M sodium hydroxide solution were added followed by the addition of water to obtain the required volume.
# Simulated gastric fluid (SGF): 0.01 N HCl, 0.05% sodium lauryl sulfate, and 0.2% NaCl.
# Fasted state simulated intestinal fluid (FaSSIF): 29 mM NaH2PO4, 3 mM Na taurocholate, 0.75 mM lecithin, 103 mM NaCl, and NaOH to obtain pH 6.5.
# Fed state simulated intestinal fluid (FeSSIF): 144 mM acetic acid, 15 mM Na taurocholate, 3.75 mM lecithin, 204 mM NaCl, and NaOH to obtain pH 5.0.
# Testing procedure: The tested febuxostat form was placed in each of the different media and was kept shaken for 24 hours at 25° C. Then, the saturated solution was filtered. The concentration of the febuxostat form in filtrate was determined by HPLC. The final pH was then tested. The test was conducted in duplication.
# [4] = media 0.01N HCl, 24 hours at 25° C.
# [5] = media 0.1N HCl, 24 hours at 25° C.
# [6] = media FaSSIF, 24 hours at 25° C.
# [7] = media FeSSIF, 24 hours at 25° C.
# [8] = media pH 1.2 (USP), 24 hours at 25° C.
# [9] = media pH 4.5 (USP), 24 hours at 25° C.
# [10] = media pH 6.8 (USP), 24 hours at 25° C.
# [11] = media pH 7.4 (USP), 24 hours at 25° C.
# [12] = media water, 24 hours at 25° C.
smiles,measurement,setting,value
"Cc1nc(-c2ccc(OCC(C)C)c(C#N)c2)sc1C(=O)O [Form G of U.S. Pat. No. 6,225,474, 2-(3-cyano-4-isobutoxyphenyl)-4-methyl-5-thiazolecarboxylic acid, reference compound]","Change in Mass (%) - ref, Desorption",[1]; Target % P/P0 0.0,−0.013%
same,"Change in Mass (%) - ref, Sorption",[1]; Target % P/P0 0.0,0.000%
same,"Change in Mass (%) - ref, Desorption",[1]; Target % P/P0 10.0,1.323%
same,"Change in Mass (%) - ref, Hysteresis",[1]; Target % P/P0 10.0,0.241%
same,"Change in Mass (%) - ref, Sorption",[1]; Target % P/P0 10.0,1.082%
same,"Change in Mass (%) - ref, Desorption",[1]; Target % P/P0 20.0,1.540%
same,"Change in Mass (%) - ref, Hysteresis",[1]; Target % P/P0 20.0,0.215%
same,"Change in Mass (%) - ref, Sorption",[1]; Target % P/P0 20.0,1.326%
same,"Change in Mass (%) - ref, Desorption",[1]; Target % P/P0 30.0,1.692%
same,"Change in Mass (%) - ref, Hysteresis",[1]; Target % P/P0 30.0,0.219%
same,"Change in Mass (%) - ref, Sorption",[1]; Target % P/P0 30.0,1.473%
same,"Change in Mass (%) - ref, Desorption",[1]; Target % P/P0 40.0,1.806%
same,"Change in Mass (%) - ref, Hysteresis",[1]; Target % P/P0 40.0,0.181%
same,"Change in Mass (%) - ref, Sorption",[1]; Target % P/P0 40.0,1.625%
same,"Change in Mass (%) - ref, Desorption",[1]; Target % P/P0 50.0,1.923%
same,"Change in Mass (%) - ref, Hysteresis",[1]; Target % P/P0 50.0,0.173%
same,"Change in Mass (%) - ref, Sorption",[1]; Target % P/P0 50.0,1.750%
same,"Change in Mass (%) - ref, Desorption",[1]; Target % P/P0 60.0,2.074%
same,"Change in Mass (%) - ref, Hysteresis",[1]; Target % P/P0 60.0,0.158%
same,"Change in Mass (%) - ref, Sorption",[1]; Target % P/P0 60.0,1.915%
same,"Change in Mass (%) - ref, Desorption",[1]; Target % P/P0 70.0,2.229%
same,"Change in Mass (%) - ref, Hysteresis",[1]; Target % P/P0 70.0,0.119%
same,"Change in Mass (%) - ref, Sorption",[1]; Target % P/P0 70.0,2.109%
same,"Change in Mass (%) - ref, Desorption",[1]; Target % P/P0 80.0,2.420%
same,"Change in Mass (%) - ref, Hysteresis",[1]; Target % P/P0 80.0,0.078%
same,"Change in Mass (%) - ref, Sorption",[1]; Target % P/P0 80.0,2.342%
same,"Change in Mass (%) - ref, Desorption",[1]; Target % P/P0 90.0,2.776%
same,"Change in Mass (%) - ref, Sorption",[1]; Target % P/P0 90.0,2.776%
same,Bulk Density,[2],0.376 g/mL
same,Tapped Density,[2],0.511 g/mL
same,solubility at 24 h,"[3]; FaSSIF, pH 6.5, fassif, media FaSSIF, 24 hours at 25° C.",448 µg/mL
same,solubility at 24 h,"[3]; FeSSIF, pH 5, fessif, media FeSSIF, 24 hours at 25° C.",132 µg/mL
same,pH,[3]; [4],1.987
same,pH,[3]; [5],0.945
same,pH,[3]; [6],6.384
same,pH,[3]; [7],4.965
same,pH,"[3]; media SGF, 24 hours at 25° C.",2.118
same,pH,[3]; [8],1.089
same,pH,[3]; [9],4.469
same,pH,[3]; [10],6.686
same,pH,[3]; [11],6.985
same,pH,"[3]; media water, shaken 24 hours at 25° C.",8.416
same,Visual solubility,[3]; [4],few particles
same,Visual solubility,[3]; [5],few particles
same,Visual solubility,[3]; [6],Turbid + few particles
same,Visual solubility,[3]; [7],Turbid + few particles
same,Visual solubility,"[3]; media SGF, 24 hours at 25° C.",few particles
same,Visual solubility,[3]; [8],few particles
same,HPLC solubility,[3]; [9],0.11 µg/mL
same,Visual solubility,[3]; [9],few particles
same,HPLC solubility,[3]; [10],764.90 µg/mL
same,Visual solubility,[3]; [10],Turbid + few particles
same,Visual solubility,[3]; [11],Slightly Turbid + few
same,HPLC solubility,[3]; [12],29.80 µg/mL
same,Visual solubility,[3]; [12],Turbid + few particles
same,solubility at 24 h,"[3]; pH 7.4 USP buffer, pH 7.4, aqueous buffer, media pH 7.4 (USP), 24 hours at 25° C.",3330 µg/mL
